Laboratory results taken from PubChem BioAssay AID588388 (NMMLSC, 2011).
The source made the active and inactive calls.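 The calls were made as follows: active = half-effect dose EC50 at most 10 µM and% response shifting 30% or more across doses, valid fit; inactive = the rest.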

Molecular target: GTPase HRas (Homo sapiens) (UniProt P01112)
Assay: inhibition of Bodipy-GTP binding to H-Ras wt – biochemical, multiplex bead flow cytometry, round 1, SAR follow-up (AID 588388)
Conditions: GST-H-Ras beads, EDTA; for % response (lower = inhibition): at 100 µM (top of the series)

Chain of GTPase HRas (Homo sapiens) (P01112 whole entry, looked up): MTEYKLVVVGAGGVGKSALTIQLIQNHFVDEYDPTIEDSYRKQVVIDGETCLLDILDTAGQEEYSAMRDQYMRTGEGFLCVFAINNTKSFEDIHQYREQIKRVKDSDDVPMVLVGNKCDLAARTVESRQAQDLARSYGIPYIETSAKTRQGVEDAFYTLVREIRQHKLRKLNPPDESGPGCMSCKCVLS

SMILES | EC50 [nM] | % response (lower = inhibition)
CC1(C)Cc2c(sc(NC(=S)NC(=O)c3ccccc3)c2C(=O)O)CO1 | 78 | 
CC(C)(C)OC(=O)c1c(NC(=S)NC(=O)c2ccccc2)sc2c1CCOC2 |  | inactive
CC1(C)Cc2c(sc(NC(=S)NC(=O)c3cccc(F)c3)c2C(=O)O)CO1 | 290 | 
CN1CCc2c(sc(NC(=O)Nc3ccc(F)cc3)c2C(=O)O)C1 |  | inactive
CCOC(=O)c1c(N)sc2ccccc12 |  | inactive
CC1(C)Cc2c(sc(NC(=O)NC(=O)c3ccccc3)c2C(=O)O)CO1 | 149 | 
CC1Cc2c(sc(NC(=S)NC(=O)c3ccccc3)c2C(=O)O)CO1 (configuration not stated) | 54 | 
CCOC(=O)c1c(NC(=O)Nc2ccc(C)cc2)sc2c1CCN(C)C2 |  | inactive
CCOC(=O)c1c(NC(=O)NC(C)(C)C)sc2c1CCN(C)C2 |  | inactive
CC1(C)Cc2c(sc(NC(=O)Cc3ccccc3)c2C(=O)O)CO1 |  | inactive
CC1(C)Cc2c(sc(NC(=S)NC(=O)c3ccccc3F)c2C(=O)O)CO1 | 50 | 
CCOC(=O)c1c(NC(=S)NC(=O)c2ccccc2)sc2ccccc12 |  | inactive
CC1(C)CCc2sc(NC(=S)NC(=O)c3ccccc3)c(C(=O)O)c2C1 | 67 | 

The remaining lines, values ahead:

EC50 [nM] | % response (lower = inhibition) | SMILES
33 |  | O=C(NC(=S)Nc1sc2c(c1C(=O)O)CCOC2)c1ccccc1
 | inactive | Cc1ccc(Nc2nc3sc4c(c3c(=O)o2)CCN(C)C4)cc1
 | inactive | COC(=O)c1c(N)sc2c1CC(C)(C)OC2
257 |  | CC1(C)Cc2c(sc(NC(=S)NC(=O)c3ccc(Br)cc3)c2C(=O)O)CO1
 | inactive | CCOC(=O)c1c(NC(=O)Nc2ccc(F)cc2)sc2c1CCN(C)C2
 | inactive | COC(=O)c1c(NC(=S)NC(=O)c2ccccc2)sc2c1CC(C)(C)OC2
 | inactive | CC1(C)Cc2c(sc(NC(=S)Nc3ccccc3)c2C(=O)O)CO1
 | inactive | CN1CCc2c(sc3nc(Nc4ccc(F)cc4)oc(=O)c23)C1
30 |  | COc1cccc(C(=O)NC(=S)Nc2sc3c(c2C(=O)O)CC(C)(C)OC3)c1
 | inactive | CC1(C)Cc2c(sc(NC(=S)NC(=O)c3cccc(Br)c3)c2C(=O)O)CO1
 | inactive | Cc1ccc(NC(=O)Nc2sc3c(c2C(=O)O)CCN(C)C3)cc1
46 |  | CC1(C)Cc2c(sc(NC(=S)NC(=O)c3ccccc3Br)c2C(=O)O)CO1
108 |  | COc1ccc(C(=O)NC(=S)Nc2sc3c(c2C(=O)O)CC(C)(C)OC3)cc1
 | inactive | CCOC(=O)c1c(NC(=S)Nc2ccccc2)sc2c1CC(C)(C)OC2
